Where a name gives a salt, the structure may show the parent alone.
Assays:
[1] = test system: 20 different microbial strains; assay: specificity of action on 20 different microbial strains, Columbia agar; type: cell-based; conditions: 19 organisms other than E. coli NCTC 10418, FAC
Experimental: (§1) The specificity of action of both DHN-β-D-glucuronide (2) and of catechol-β-D-glucuronide (1), as well as their 6′-methyl esters (4 and 6), was first established using multi-point inoculation of 20 different microbial strains onto Columbia agar plates. The strains chosen represented species commonly encountered in diagnostic microbiology. The substrates were incorporated into the agar at a concentration of 300 mg/L with an iron salt, ferric ammonium citrate, (hereinafter known as FAC) at 500 mg/L. The plates were incubated for 18 h at 37° C. in air.
Of the 20 strains, only the β-D-glucuronidase-positive strain of E. coli, (E. coli NCTC 10418) was able to hydrolyse the substrates. This organism generated diffuse, purple-brown colonies with the catechol substrates and diffuse, maroon colonies with the DHN substrates. Essentially identical results were obtained if other iron salts (e.g. iron(II) gluconate, iron(II) acetate, iron(II) citrate, iron(II) acetylacetonate and iron(III) acetylacetonate) were substituted in place of FAC. The iron compound can be either iron(II) (i.e. ferrous) or iron(III) (i.e. ferric). Both types of compound work equally, and the coloured chelates were still formed when the plates were incubated under anaerobic conditions, which is another useful feature of the present invention. The substrates may also be autoclaved at 116° C. for 20 minutes with no decrease in sensitivity. It will be appreciated that the media and the reagents will all contain at least traces of iron compounds. […] In contrast, supplementing the growth media with compounds of other metals gave either no coloured endpoint or an extremely poor one to visualise. […] Therefore the latter substrates were preferred for more extensive evaluation. […] For convenience, further evaluation of catechol-β-D-glucuronide and DHN-β-D-glucuronide was conducted with the CHA salt forms only (1 and 2b). In the present invention the counter ion of the glucuronide is not considered to be of special significance. For acidic enzyme substrates (including glucuronides), a variety of different counter ions, both inorganic and organic, are well known in the prior art.

[2] = test system: Pseudomonas aeruginosa NCTC 10662; assay: multi-point inoculation onto Columbia agar plates; also: key: ++ means strong colour; + means less colour than ++; − means no colour; type: cell-based; conditions: substrate 300 mg/L, FAC 500 mg/L, 18 h at 37° C. in air
Experimental: as §1

[3] = test system: Enterococcus faecium NCTC 7171; assay: multi-point inoculation onto Columbia agar plates; also: key: ++ means strong colour; + means less colour than ++; − means no colour; type: cell-based; conditions: substrate 300 mg/L, FAC 500 mg/L, 18 h at 37° C. in air
Experimental: as §1

[4] = test system: Serratia marcescens NCTC 10211; assay: multi-point inoculation onto Columbia agar plates; also: key: ++ means strong colour; + means less colour than ++; − means no colour; type: cell-based; conditions: substrate 300 mg/L, FAC 500 mg/L, 18 h at 37° C. in air
Experimental: as §1

[5] = test system: Burkholderia cepacia NCTC 10931; assay: multi-point inoculation onto Columbia agar plates; type: cell-based; conditions: substrate 300 mg/L, FAC 500 mg/L, 18 h at 37° C. in air
Experimental: as §1

[6] = test system: Staphylococcus aureus NCTC 6571; assay: multi-point inoculation onto Columbia agar plates; also: key: ++ means strong colour; + means less colour than ++; − means no colour; type: cell-based; conditions: substrate 300 mg/L, FAC 500 mg/L, 18 h at 37° C. in air
Experimental: as §1

[7] = test system: Streptococcus pyogenes NCTC 8306; assay: multi-point inoculation onto Columbia agar plates; also: key: ++ means strong colour; + means less colour than ++; − means no colour; type: cell-based; conditions: substrate 300 mg/L, FAC 500 mg/L, 18 h at 37° C. in air
Experimental: as §1

[8] = test system: Salmonella typhimurium NCTC 74; assay: multi-point inoculation onto Columbia agar plates; also: key: ++ means strong colour; + means less colour than ++; − means no colour; type: cell-based; conditions: substrate 300 mg/L, FAC 500 mg/L, 18 h at 37° C. in air
Experimental: as §1

[9] = test system: Staphylococcus epidermidis NCTC 11047; assay: multi-point inoculation onto Columbia agar plates; also: key: ++ means strong colour; + means less colour than ++; − means no colour; type: cell-based; conditions: substrate 300 mg/L, FAC 500 mg/L, 18 h at 37° C. in air
Experimental: as §1

[10] = test system: Listeria monocytogenes NCTC 11994; assay: multi-point inoculation onto Columbia agar plates; also: key: ++ means strong colour; + means less colour than ++; − means no colour; type: cell-based; conditions: substrate 300 mg/L, FAC 500 mg/L, 18 h at 37° C. in air
Experimental: as §1

[11] = test system: Enterobacter cloacae NCTC 11936; assay: multi-point inoculation onto Columbia agar plates; also: key: ++ means strong colour; + means less colour than ++; − means no colour; type: cell-based; conditions: substrate 300 mg/L, FAC 500 mg/L, 18 h at 37° C. in air
Experimental: as §1

[12] = test system: Klebsiella pneumoniae NCTC 9528; assay: multi-point inoculation onto Columbia agar plates; also: key: ++ means strong colour; + means less colour than ++; − means no colour; type: cell-based; conditions: substrate 300 mg/L, FAC 500 mg/L, 18 h at 37° C. in air
Experimental: as §1

[13] = test system: Escherichia coli NCTC 10418; assay: multi-point inoculation onto Columbia agar plates; type: cell-based; conditions: for intensity of the colour / performance compared with the other substrates: comparison in words, Columbia agar with FAC; for colour: substrate 300 mg/L, FAC 500 mg/L, 18 h at 37° C. in air
Experimental: as §1

[14] = test system: Staphylococcus aureus (MRSA) NCTC 11939; assay: multi-point inoculation onto Columbia agar plates; also: key: ++ means strong colour; + means less colour than ++; − means no colour; type: cell-based; conditions: substrate 300 mg/L, FAC 500 mg/L, 18 h at 37° C. in air
Experimental: as §1

[15] = test system: Enterococcus faecalis NCTC 775; assay: multi-point inoculation onto Columbia agar plates; also: key: ++ means strong colour; + means less colour than ++; − means no colour; type: cell-based; conditions: substrate 300 mg/L, FAC 500 mg/L, 18 h at 37° C. in air
Experimental: as §1

[16] = test system: Bacillus subtilis NCTC 9372; assay: multi-point inoculation onto Columbia agar plates; also: key: ++ means strong colour; + means less colour than ++; − means no colour; type: cell-based; conditions: substrate 300 mg/L, FAC 500 mg/L, 18 h at 37° C. in air
Experimental: as §1

[17] = test system: Providencia rettgeri NCTC 7475; assay: multi-point inoculation onto Columbia agar plates; also: key: ++ means strong colour; + means less colour than ++; − means no colour; type: cell-based; conditions: substrate 300 mg/L, FAC 500 mg/L, 18 h at 37° C. in air
Experimental: as §1

[18] = test system: Candida glabrata NCPF 3943; assay: multi-point inoculation onto Columbia agar plates; also: key: ++ means strong colour; + means less colour than ++; − means no colour; type: cell-based; conditions: substrate 300 mg/L, FAC 500 mg/L, 18 h at 37° C. in air
Experimental: as §1

[19] = test system: Candida albicans ATCC 90028; assay: multi-point inoculation onto Columbia agar plates; also: key: ++ means strong colour; + means less colour than ++; − means no colour; type: cell-based; conditions: substrate 300 mg/L, FAC 500 mg/L, 18 h at 37° C. in air
Experimental: as §1

[20] = test system: Acinetobacter baumanaii NCTC 19606; assay: multi-point inoculation onto Columbia agar plates; also: key: ++ means strong colour; + means less colour than ++; − means no colour; type: cell-based; conditions: substrate 300 mg/L, FAC 500 mg/L, 18 h at 37° C. in air
Experimental: as §1

[21] = test system: Yersinia enterocolitica NCTC 11176; assay: multi-point inoculation onto Columbia agar plates; type: cell-based; conditions: substrate 300 mg/L, FAC 500 mg/L, 18 h at 37° C. in air
Experimental: as §1

Row | Compound | result with the other 19 organisms [1] | colour [2] | colour [3] | colour [4] | colour [5] | colour [6] | colour [7] | colour [8] | colour [9] | colour [10] | colour [11] | colour [12] | intensity of the colour / performance compared with the other substrates [13] | colour [13] | colour [14] | colour [15] | colour [16] | colour [17] | colour [18] | melting point [°C] | also measured
1 | COC(=O)C1OC(Oc2ccccc2O)C(O)C(O)C1O [Compound 4, Catechol β-D-Glucuronide-6′-Methyl Ester] | uniformly negative | − | − | − | − | − | − | − | − | − | − | − | noticeably inferior | + | − | − | − | − | − |  | colour [19]: −; colour [20]: −; colour [21]: −
2 | COC(=O)C1OC(Oc2cc3ccccc3cc2O)C(OC(C)=O)C(OC(C)=O)C1OC(C)=O [Compound 5, DHN-2′,3′,4′-tri-O-acetyl-β-D-glucuronide-6-methyl ester] |  |  |  |  |  |  |  |  |  |  |  |  |  |  |  |  |  |  |  | 191 to 192 | 
3 | O=C(O)C1OC(Oc2ccccc2O)C(O)C(O)C1O (as salt: salt) [Compound 1, Catechol β-D-Glucuronide CHA Salt] |  |  |  |  |  |  |  |  |  |  |  |  |  |  |  |  |  |  |  | 208 to 210 | 
4 | O=C([O-])C1OC(Oc2cc3ccccc3cc2O)C(O)C(O)C1O.[Na+] [Compound 2a, DHN-β-D-Glucuronide Sodium Salt] | uniformly negative | − | − | − | − | − | − | − | − | − | − | − | performed the same as its CHA salt (2b) | ++ | − | − | − | − | − | 53 to 55 | colour [19]: −; colour [20]: −; colour [21]: −
5 | COC(=O)C1OC(Oc2cc3ccccc3cc2O)C(O)C(O)C1O [Compound 6, DHN-β-D-Glucuronide-6′-Methyl Ester] | uniformly negative | − | − | − | − | − | − | − | − | − | − | − | noticeably inferior | + | − | − | − | − | − |  | colour [19]: −; colour [20]: −; colour [21]: −
6 | COC(=O)C1OC(Oc2ccccc2O)C(OC(C)=O)C(OC(C)=O)C1OC(C)=O [Compound 3, Catechol 2′,3′,4′,-tri-O-acetyl β-D-glucuronide-6′-methyl ester] |  |  |  |  |  |  |  |  |  |  |  |  |  |  |  |  |  |  |  | 128 to 130 | 
7 | O=C(O)C1OC(Oc2cc3ccccc3cc2O)C(O)C(O)C1O (as salt: salt) [Compound 2b, DHN-β-D-Glucuronide CHA Salt] |  |  |  |  |  |  |  |  |  |  |  |  |  |  |  |  |  |  |  | 223 to 224 | 

Source: patent US9879303B2, “Chromogenic glucuronidase substrates and uses” (Glycosynth Limited, priority 2013, dated 2018)
